pIC50: −log10 of the molar value. Read-outs that look alike come from different tables or passages of the source.
Tests used:
Type in all cases: biochemical
[1] = target: human CSNK1D (Homo sapiens (Human), UniProt P48730); test: CSNK1D Assay (ADP-Glo, 1 μM ATP); settings: read-out: CSNK1D IC50 [mol/l] (median)
How it was run: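 GST-tagged full-length human CSNK1D from baculovirus-infected insect cells, typically ~0.5 ng/μL, with biotinylated peptide substrate and 1 μM ATP in HEPES pH 7.5 buffer. Compound is preincubated with enzyme 15 min at 22 °C. ADP formed is quantified by ADP-Glo luminescence.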

[2] = target: T1, human CSNK1A1 (Homo sapiens (Human), UniProt P48729); test: CSNK1A1 High ATP Assay (ADP-Glo, 1 mM ATP); settings: read-out: CSNK1A1 high ATP assay IC50 [mol/l] (median)
How it was run: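 GST-tagged full-length human CSNK1A1 from baculovirus-infected insect cells (typically about 0.4 ng/μL), pre-incubated with compound 15 min at 22 °C. Reaction with biotinylated peptide biotin-Ahx-KRRRAL-pS-VASLPGL at 1 mM ATP. ADP formed read by ADP-Glo luminescence.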

[3] = target: T1, human CSNK1A1; test: CSNK1A1 Assay 2 (ADP-Glo, 1 μM ATP); settings: substrate biotin-Ahx-KRRRAL-pS-VASLPGL, read-out: CSNK1A1 Assay 2 IC50 [mol/l] (median)
How it was run: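 Full-length human CSNK1A1 as an N-terminal GST fusion (baculovirus/insect cells) with biotinylated peptide substrate biotin-Ahx-KRRRAL-pS-VASLPGL and 1 μM ATP, in HEPES pH 7.5 buffer. Compounds were pre-incubated with enzyme (~0.0375 ng/μL) for 15 min at 22 °C. Generated ADP was read by ADP-Glo luminescence as the activity measure.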

[4] = target: wild-type Epidermal Growth Factor Receptor (EGFR) (Homo sapiens (Human), UniProt P00533); test: WT-EGFR Kinase Assay (TR-FRET, 2 mM ATP)
[5] = EGFR Wildtyp- 2 mM ATP IC50 [mol/l] (median)
[6] = read-out: EGFR Wildtyp- 2 mM ATP IC50 [mol/l] (median)

T1 sequence (P48729 whole entry): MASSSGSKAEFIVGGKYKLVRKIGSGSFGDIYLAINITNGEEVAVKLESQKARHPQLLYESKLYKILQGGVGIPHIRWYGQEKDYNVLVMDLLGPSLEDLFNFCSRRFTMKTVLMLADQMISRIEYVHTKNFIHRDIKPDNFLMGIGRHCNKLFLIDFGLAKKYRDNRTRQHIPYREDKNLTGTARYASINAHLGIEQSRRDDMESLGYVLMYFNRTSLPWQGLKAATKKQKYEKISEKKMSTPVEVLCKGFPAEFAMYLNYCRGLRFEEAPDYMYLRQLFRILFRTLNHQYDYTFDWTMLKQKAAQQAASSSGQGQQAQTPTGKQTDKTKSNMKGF
human CSNK1D, sequence (P48730 whole entry): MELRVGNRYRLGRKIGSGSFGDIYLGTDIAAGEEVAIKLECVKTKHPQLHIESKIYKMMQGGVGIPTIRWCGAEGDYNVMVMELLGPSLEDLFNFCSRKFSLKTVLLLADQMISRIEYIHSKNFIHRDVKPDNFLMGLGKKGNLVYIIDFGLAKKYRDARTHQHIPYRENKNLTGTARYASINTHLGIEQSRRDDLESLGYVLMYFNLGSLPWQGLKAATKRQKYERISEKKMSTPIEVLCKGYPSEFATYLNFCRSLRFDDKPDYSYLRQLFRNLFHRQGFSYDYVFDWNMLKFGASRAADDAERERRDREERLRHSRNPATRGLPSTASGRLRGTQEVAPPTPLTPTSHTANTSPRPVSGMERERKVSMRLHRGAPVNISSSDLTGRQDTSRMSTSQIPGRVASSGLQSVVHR
wild-type Epidermal Growth Factor Receptor (EGFR), sequence (P00533 669-1210): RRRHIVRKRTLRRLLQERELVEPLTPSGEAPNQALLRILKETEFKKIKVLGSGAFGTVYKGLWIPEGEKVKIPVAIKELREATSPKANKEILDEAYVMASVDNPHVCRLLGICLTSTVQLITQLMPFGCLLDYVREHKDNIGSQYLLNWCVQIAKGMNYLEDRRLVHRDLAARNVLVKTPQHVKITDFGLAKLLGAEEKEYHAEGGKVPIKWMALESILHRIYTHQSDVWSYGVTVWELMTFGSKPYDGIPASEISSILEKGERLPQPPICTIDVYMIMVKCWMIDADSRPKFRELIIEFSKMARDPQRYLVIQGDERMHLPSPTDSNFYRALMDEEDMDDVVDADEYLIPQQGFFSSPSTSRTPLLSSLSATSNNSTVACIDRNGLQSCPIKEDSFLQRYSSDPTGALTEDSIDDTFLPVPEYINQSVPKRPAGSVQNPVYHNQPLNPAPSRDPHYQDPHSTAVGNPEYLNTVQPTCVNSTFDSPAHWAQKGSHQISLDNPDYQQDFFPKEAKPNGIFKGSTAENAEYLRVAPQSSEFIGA

| Structure (SMILES) | pIC50 [1] | pIC50 [2] | pIC50 [3] | pIC50 [4, 5] | pIC50 [4, 6] |
| --- | --- | --- | --- | --- | --- |
| CC1(C)Cc2[nH]c(-c3ccnc(NC(=O)C(CC(F)F)c4ccc(F)cc4)c3)c(Nc3cccc(F)c3Cl)c2C(=O)N1 (racemic) [Example 109, N-{4-[3-(2-chloro-3-fluoroanilino)-6,6-dimethyl-4-oxo-4,5,6,7-tetrahydro-1H-pyrrolo[3,2-c]pyridin-2-yl]pyridin-2-yl}-4,4-difluoro-2-(4-fluorophenyl)butanamide] | 7.85 | 6.87 | 7.79 | < 4.70 |  |
| O=C1NC2(CC2)Cc2[nH]c(-c3ccnc(NC(=O)C(CC(F)F)c4ccc(F)cc4)c3)c(Nc3ccccc3)c21 (racemic) [Example 147, N-[4-(3′-anilino-4′-oxo-1′,4′,5′,7′-tetrahydrospiro[cyclopropane-1,6′-pyrrolo[3,2-c]pyridin]-2′-yl)pyridin-2-yl]-4,4-difluoro-2-(4-fluorophenyl)butanamide (Racemate)] | 7.94 | 7.72 | 8.21 | 6.57 |  |
| CN1CCc2[nH]c(-c3ccnc(NC(=O)C(CO)c4ccc(F)cc4)c3)c(Nc3ccccc3)c2C1=O (single isomer, unassigned) [Example 18, N-[4-(3-anilino-5-methyl-4-oxo-4,5,6,7-tetrahydro-1H-pyrrolo[3,2-c]pyridin-2-yl)pyridin-2-yl]-2-(4-fluorophenyl)-3-hydroxypropanamide] | 7.35 | 5.75 | 7.69 | 4.83 |  |
| CN1CCc2[nH]c(-c3ccnc(NC(=O)Cc4cccc(C(F)(F)F)c4)c3)c(Nc3ccccc3)c2C1=O [Example 116, N-[4-(3-anilino-5-methyl-4-oxo-4,5,6,7-tetrahydro-1H-pyrrolo[3,2-c]pyridin-2-yl)pyridin-2-yl]-2-[3-(trifluoromethyl)phenyl]acetamide] | 7.26 | 6.34 | 7.73 |  | < 4.70 |
| CC1(C)Cc2[nH]c(-c3ccnc(NC(=O)C(CC(F)F)c4ccc(F)cc4)c3)c(Nc3cccc(F)c3Cl)c2C(=O)N1 (single isomer, unassigned; (+)) [Example 111, (+)-N-{4-[3-(2-chloro-3-fluoroanilino)-6,6-dimethyl-4-oxo-4,5,6,7-tetrahydro-1H-pyrrolo[3,2-c]pyridin-2-yl]pyridin-2-yl}-4,4-difluoro-2-(4-fluorophenyl)butanamide] | 7.99 | 6.87 | 7.96 | 5.94 |  |
| CC1(C)Cc2[nH]c(-c3ccnc(NC(=O)Cc4ccc(F)cc4)c3)c(Nc3cccc(F)c3)c2C(=O)N1 [Example 119, N-{4-[3-(3-fluoroanilino)-6,6-dimethyl-4-oxo-4,5,6,7-tetrahydro-1H-pyrrolo[3,2-c]pyridin-2-yl]pyridin-2-yl}-2-(4-fluorophenyl)acetamide] | 7.97 | 6.45 | 8.25 |  | 5.60 |
| CC1Cc2[nH]c(-c3ccnc(NC(=O)C(CC(F)F)c4ccc(F)cc4)c3)c(Nc3ccccc3F)c2C(=O)N1C (single isomer, unassigned; (+)) [Example 108, (+)-4,4-difluoro-N-{4-[3-(2-fluoroanilino)-5,6-dimethyl-4-oxo-4,5,6,7-tetrahydro-1H-pyrrolo[3,2-c]pyridin-2-yl]pyridin-2-yl}-2-(4-fluorophenyl)butanamide] | 8.34 | 8.08 | 8.49 |  | < 4.70 |
| CN1CCc2[nH]c(-c3ccnc(NC(=O)Cc4ccc(F)cc4F)c3)c(Nc3ccccc3)c2C1=O [Example 82, N-[4-(3-anilino-5-methyl-4-oxo-4,5,6,7-tetrahydro-1H-pyrrolo[3,2-c]pyridin-2-yl)pyridin-2-yl]-2-(2,4-difluorophenyl)acetamide] | 8.26 | 6.79 | 8.65 |  | 5.94 |
| O=C1NC2(CCC2)Cc2[nH]c(-c3ccnc(NC(=O)C(CC(F)F)c4ccc(F)cc4)c3)c(Nc3cccc(F)c3Cl)c21 (single isomer, unassigned; enantiomer 1) [Example 124, (−)-N-{4-[3′-(2-chloro-3-fluoroanilino)-4′-oxo-1′,4′,5′,7′-tetrahydrospiro[cyclobutane-1,6′-pyrrolo[3,2-c]pyridin]-2′-yl]pyridin-2-yl}-4,4-difluoro-2-(4-fluorophenyl)butanamide (Enantiomer 1)] | 7.23 | < 5.24 | 7.13 | < 4.70 |  |
| COCCNC(=O)c1ccc(CC(=O)Nc2cc(-c3[nH]c4c(c3Nc3ccccc3)C(=O)N(C)CC4)ccn2)cc1 [Example 152, 4-(2-{[4-(3-anilino-5-methyl-4-oxo-4,5,6,7-tetrahydro-1H-pyrrolo[3,2-c]pyridin-2-yl)pyridin-2-yl]amino}-2-oxoethyl)-N-(2-methoxyethyl)benzamide] | 8.10 | 7.43 | 8.61 |  | 5.78 |
| Cc1ccccc1Nc1c(-c2ccnc(NC(=O)C(CC(F)F)c3ccc(F)cc3)c2)[nH]c2c1C(=O)NC(C)(C)C2 (racemic) [Example 135, N-{4-[6,6-dimethyl-3-(2-methylanilino)-4-oxo-4,5,6,7-tetrahydro-1H-pyrrolo[3,2-c]pyridin-2-yl]pyridin-2-yl}-4,4-difluoro-2-(4-fluorophenyl)butanamide (Racemate)] | 7.70 | 6.44 | 7.59 | < 4.70 |  |
| CC1Cc2[nH]c(-c3ccnc(NC(=O)Cc4ccc(F)cc4)c3)c(Nc3ccccc3F)c2C(=O)N1C (racemic) [Example 100, N-{4-[3-(2-fluoroanilino)-5,6-dimethyl-4-oxo-4,5,6,7-tetrahydro-1H-pyrrolo[3,2-c]pyridin-2-yl]pyridin-2-yl}-2-(4-fluorophenyl)acetamide] | 7.81 | 6.60 | 8.40 | 5.42 |  |
| CN1CCc2[nH]c(-c3ccnc(NC(=O)C(CCN4CCOCC4)c4ccccc4)c3)c(Nc3ccccc3)c2C1=O (stereo not drawn) [Example 30, N-[4-(3-anilino-5-methyl-4-oxo-4,5,6,7-tetrahydro-1H-pyrrolo[3,2-c]pyridin-2-yl)pyridin-2-yl]-4-(morpholin-4-yl)-2-phenylbutanamide] | 7.59 | 6.31 | 8.10 |  | < 4.70 |
| CC1Cc2[nH]c(-c3ccnc(NC(=O)Cc4ccc(F)cc4)c3)c(Nc3ccccc3F)c2C(=O)N1C (single isomer, unassigned; (-)) [Example 102, (−)-N-{4-[3-(2-fluoroanilino)-5,6-dimethyl-4-oxo-4,5,6,7-tetrahydro-1H-pyrrolo[3,2-c]pyridin-2-yl]pyridin-2-yl}-2-(4-fluorophenyl)acetamide] | 8.14 | 7.29 | 8.44 | 5.63 |  |
| CC1Cc2[nH]c(-c3ccnc(NC(=O)Cc4ccncc4)c3)c(Nc3ccccc3)c2C(=O)N1C (single isomer, unassigned; (-)) [Example 99, (−)-N-{4-[(6S*)-3-anilino-5,6-dimethyl-4-oxo-4,5,6,7-tetrahydro-1H-pyrrolo[3,2-c]pyridin-2-yl]pyridin-2-yl}-2-(pyridin-4-yl)acetamide] | 8.29 | 7.59 | 8.42 | 6.48 |  |

From patent US12227501B2, “3-amino-2-[2-(acylamino)pyridin-4-yl]-1,5,6,7-tetrahydro-4h-pyrrolo[3,2-c]pyridin-4-one as CSNK1 inhibitors” (Bayer Aktiengesellschaft, priority 2019, dated 2025)
